Laboratory results published in ChEMBL document CHEMBL6103565, “Current strategies in design and synthesis of antifungals hybrid and chimeric diazine derivatives” (Bioorg Med Chem, 2025).
Converted amounts (≈) assume the structure as drawn.

The molecules below were run on Candida tropicalis (assay: Antifungal activity against Candida tropicalis assessed as zone of inhibition by disc diffusion method).
Assay type: functional
For COC1=CC(=O)C[C@@H](C)[C@]12Oc1c(Cl)c(OC)cc(OC)c1C2=O [GRISEOFULVIN], the “inhibition zone (IZ)” value was 25 mm. In the case of CC1=NN(c2ccccc2)C2N=C3SCCN3C(c3ccc(Cl)cc3)C12 (stereo not given), the “inhibition zone (IZ)” value is reported as 26 mm. COc1ccc(C2C3C(C)=NN(c4ccccc4)C3N=C3SCCN32)cc1 (stereo not given) was tested, and the “inhibition zone (IZ)” value was 26 mm.

The molecules below were run on Botryosphaeria dothidea (assay: Antifungal activity against Botryosphaeria dothidea assessed as reduction in fungal growth at 50 ug/ml relative to control).
Assay type: functional
With O=C(Nc1ccc(F)cc1)c1ccc(Oc2cc(C(F)(F)F)ncn2)cc1 the inhibition at 50 µg/mL was 89.8%. Cc1nc(Oc2ccc(C(=O)Nc3ccc(OC(F)(F)F)cc3)cc2)cc(C(F)(F)F)n1 gave an inhibition at 50 µg/mL of 93.1%. Cc1nc(Oc2ccc(C(=O)Nc3ccc(F)cc3)cc2)cc(C(F)(F)F)n1 was tested, and the inhibition at 50 µg/mL was 85.9%. Cc1cc(C)nc(Nc2ccccc2)n1 [PYRIMETHANIL] was tested, and the inhibition at 50 µg/mL was 84.4%. Work on Cc1nc(Oc2ccc(C(=O)Nc3ccc(OC(F)(F)F)c(Cl)c3)cc2)cc(C(F)(F)F)n1 yielded an inhibition at 50 µg/mL of 98.5%.

What follows are molecules tested on Candida albicans (assay: Antifungal activity against Candida albicans ATCC 10231 assessed as inhibition of mycelial growth relative to control).
Assay type: functional
With O=C(Nc1ccccc1)c1nnn2c1[nH]c(=O)c1ccccc12 the “inhibition (INH)” value was 40%.

These molecules were tested on Geotrichum candidum (assay: Antifungal activity against Geotrichum candidum).
Assay type: functional
Work on Cc1nn(-c2ccccc2)c2nc3sc4c(c3nc12)N=C(N)COC4=O yielded an MIC of 4 µg/mL (≈ 11 µM). With CCOC(=O)Cc1nc2c3[se]c4nc5c(nc4c3ncn2n1)c(C)nn5-c1ccccc1 the MIC was 6 µg/mL (≈ 12.2 µM).

Each molecule was assayed on Phomopsis (assay: Antifungal activity against Phomopsis assessed as reduction in fungal growth at 50 ug/ml relative to control).
Assay type: functional
Cc1nc(Oc2ccc(C(=O)Nc3ccc(OC(F)(F)F)cc3)cc2)cc(C(F)(F)F)n1 was tested, and the inhibition at 50 µg/mL was 89%. Cc1cc(C)nc(Nc2ccccc2)n1 [PYRIMETHANIL] gave an inhibition at 50 µg/mL of 85.1%. With Cc1nc(Oc2ccc(C(=O)Nc3ccc(OC(F)(F)F)c(Cl)c3)cc2)cc(C(F)(F)F)n1 the inhibition at 50 µg/mL was 92%.

The molecules below were run on Candida albicans (assay: Antimicrobial activity against Candida albicans ATCC 64124 assessed as reduction in microbial growth by CLSI protocol based micro-broth dilution method).
Assay type: functional
For Cc1nc(-c2ccc(C(C)(C)C)cc2)sc1-c1ccnc(N[C@H]2CC[C@H](N)CC2)n1, the MIC was 4 µg/mL.

These molecules were tested on Candida albicans (assay: Antifungal activity against Candida albicans assessed as zone of inhibition).
Assay type: functional
With CC(=O)N(C(C)=O)N1C(=O)CC(=O)N(c2nnc(-c3cc([N+](=O)[O-])cc([N+](=O)[O-])c3)s2)C1=S the “inhibition zone (IZ)” value was 23 mm. In the case of O=C1NC(=O)C(=C2NN=C(Nc3nnc(-c4cc([N+](=O)[O-])cc([N+](=O)[O-])c4)s3)S2)C(=O)N1, the “inhibition zone (IZ)” value is reported as 25 mm.

These molecules were tested on Aspergillus niger (assay: Antifungal activity against Aspergillus niger assessed as zone of inhibition by disc diffusion method).
Assay type: functional
With COC1=CC(=O)C[C@@H](C)[C@]12Oc1c(Cl)c(OC)cc(OC)c1C2=O [GRISEOFULVIN] the “inhibition zone (IZ)” value was 22 mm. For CC1=NN(c2ccccc2)C2N=C3SCCN3C(c3ccc(Cl)cc3)C12 (stereo not given), the “inhibition zone (IZ)” value was 24 mm. For CCOC(=O)c1c(C)nc2sc3c(SCC(=O)Nc4ccc(C)cc4)ncnc3c2c1-c1cccs1, the “inhibition zone (IZ)” value was 24 mm. With COc1ccc(C2C3C(C)=NN(c4ccccc4)C3N=C3SCCN32)cc1 (stereo not given) the “inhibition zone (IZ)” value was 24 mm.

The molecules below were run on Botrytis cinerea (assay: Antifungal activity against Botrytis cinerea assessed as reduction in fungal growth at 50 ug/ml relative to control).
Assay type: functional
O=C(Nc1ccc(F)cc1)c1ccc(Oc2cc(C(F)(F)F)ncn2)cc1 gave an inhibition at 50 µg/mL of 90.3%. With Cc1nc(Oc2ccc(C(=O)Nc3ccc(OC(F)(F)F)cc3)cc2)cc(C(F)(F)F)n1 the inhibition at 50 µg/mL was 96.7%. With Cc1cc(C)nc(Nc2ccccc2)n1 [PYRIMETHANIL] the inhibition at 50 µg/mL was 82.8%. Cc1nc(Oc2ccc(C(=O)Nc3ccc(OC(F)(F)F)c(Cl)c3)cc2)cc(C(F)(F)F)n1 showed an inhibition at 50 µg/mL of 98.5%.

These molecules were tested on Aspergillus niger (assay: Antifungal activity against Aspergillus niger assessed as zone of inhibition).
Assay type: functional
In the case of CC(=O)N(C(C)=O)N1C(=O)CC(=O)N(c2nnc(-c3cc([N+](=O)[O-])cc([N+](=O)[O-])c3)s2)C1=S, the “inhibition zone (IZ)” value is reported as 21 mm. For O=C1NC(=O)C(=C2NN=C(Nc3nnc(-c4cc([N+](=O)[O-])cc([N+](=O)[O-])c4)s3)S2)C(=O)N1, the “inhibition zone (IZ)” value was 23 mm.

The molecules below were run on Candida albicans (assay: Antifungal activity against Candida albicans NRRL-Y477 assessed as zone of inhibition by disc diffusion method).
Assay type: functional
For CCOC(=O)c1c(C)nc2sc3c(SCC(=O)Nc4ccc(C)cc4)ncnc3c2c1-c1cccs1, the “inhibition zone (IZ)” value was 25 mm.

What follows are molecules tested on Candida albicans (assay: Antifungal activity against Candida albicans).
Assay type: functional
Work on COC1=CC(=O)C[C@@H](C)[C@]12Oc1c(Cl)c(OC)cc(OC)c1C2=O [GRISEOFULVIN] yielded an MIC of 500 µg/mL (≈ 1420 µM). CCOC(=O)Cc1nc2c3[se]c4nc5c(nc4c3ncn2n1)c(C)nn5-c1ccccc1 was tested, and the MIC was 8 µg/mL (≈ 16.3 µM).
